Measured values from PubChem BioAssay AID248 (DTP/NCI, 2004).
Where “and” joins values, the source holds several entries; their conditions need not be identical. Equal entries are not always repeated. Toxic doses and inconclusive results are not listed.

System: L1210 leukemia ip in BDF1 mice, survival T/C
Test: NCI In Vivo Anticancer Drug Screen. Data for tumor model L1210 Leukemia (intraperitoneal) in B6D2F1 (BDF1) mice
Conditions: endpoint: mean survival time, higher = longer survival
Outline: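 Mice bearing the transplanted tumor received compound or vehicle. Survival of the treated group was divided by that of the vehicle-treated control group to give the ratio.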

[1] = dose: 100.0 mg/kg/injection, schedule: Q01DX001 (ip), vehicle: saline
[2] = dose: 200.0 mg/kg/injection, schedule: Q01DX001 (ip), vehicle: saline
[3] = dose: 400.0 mg/kg/injection, schedule: Q01DX001 (ip), vehicle: saline
[4] = dose: 50.0 mg/kg/injection, schedule: Q01DX009 (ip), vehicle: saline with Tween-80
[5] = dose: 50.0 mg/kg/injection, schedule: Q01DX009 (ip), vehicle: saline
[6] = dose: 100.0 mg/kg/injection, schedule: Q01DX009 (ip), vehicle: saline with Tween-80
[7] = dose: 200.0 mg/kg/injection, schedule: Q01DX009 (ip), vehicle: saline with Tween-80
[8] = dose: 25.0 mg/kg/injection, schedule: Q04DX003 (ip), vehicle: Klucel (hydroxypropylcellulose) (HPC)
[9] = dose: 50.0 mg/kg/injection, schedule: Q04DX003 (ip), vehicle: Klucel (hydroxypropylcellulose) (HPC)
[10] = dose: 100.0 mg/kg/injection, schedule: Q04DX003 (ip), vehicle: Klucel (hydroxypropylcellulose) (HPC)
[11] = dose: 50.0 mg/kg/injection, schedule: Q04DX002 (ip), vehicle: Klucel (hydroxypropylcellulose) (HPC)
[12] = dose: 100.0 mg/kg/injection, schedule: Q04DX002 (ip), vehicle: Klucel (hydroxypropylcellulose) (HPC)
[13] = dose: 100.0 mg/kg/injection, schedule: Q04DX003 (ip), vehicle: saline with Tween-80
[14] = dose: 200.0 mg/kg/injection, schedule: Q04DX003 (ip), vehicle: saline with Tween-80
[15] = dose: 400.0 mg/kg/injection, schedule: Q04DX003 (ip), vehicle: saline with Tween-80
[16] = dose: 100.0 mg/kg/injection, schedule: Q04DX002 (ip), vehicle: saline
[17] = dose: 200.0 mg/kg/injection, schedule: Q04DX002 (ip), vehicle: saline
[18] = dose: 400.0 mg/kg/injection, schedule: Q04DX002 (ip), vehicle: saline

## CN(N=O)c1ccccc1
dose: 50.0 mg/kg/injection, schedule: Q01DX001 (ip), vehicle: saline
  T/C: 93 % of control
[1]
  T/C: 93 % of control
[2]
  T/C: 98 % of control
[3]
  T/C: 102 % of control

## CCN(CC)CCC(=O)c1ccccc1
dose: 12.5 mg/kg/injection, schedule: Q01DX009 (ip), vehicle: saline
  T/C: 100 % of control
dose: 25.0 mg/kg/injection, schedule: Q01DX009 (ip), vehicle: saline
  T/C: 97 % of control
[4]
  T/C: 96 % of control
[5]
  T/C: 97 % of control
[6]
  T/C: 91 % of control

## COc1ccc(CCC(C)=O)cc1OC
dose: 100.0 mg/kg/injection, schedule: Q01DX009 (ip), vehicle: Klucel (hydroxypropylcellulose) (HPC)
  T/C: 97 % of control
dose: 200.0 mg/kg/injection, schedule: Q01DX009 (ip), vehicle: Klucel (hydroxypropylcellulose) (HPC)
  T/C: 93 % of control

## CCCCCCCCC1SC1CCCCCCCC(=O)OCC1CS1 (stereo unspecified)
dose: 100.0 mg/kg/injection, schedule: Q01DX001 (ip), vehicle: other
  T/C: 101 % of control
dose: 200.0 mg/kg/injection, schedule: Q01DX001 (ip), vehicle: other
  T/C: 115 % of control
dose: 400.0 mg/kg/injection, schedule: Q01DX001 (ip), vehicle: other
  T/C: 93 % of control

## O=C(Nc1ccc(N=C(c2ccccc2)N2CCOCC2)cc1)c1ccc(C(=O)Nc2ccc(N=C(c3ccccc3)N3CCOCC3)cc2)cc1
dose: 62.0 mg/kg/injection, schedule: Q01DX Z (ip), vehicle: carboxymethylcellulose (CMC)
  T/C: 92 % of control
dose: 125.0 mg/kg/injection, schedule: Q01DX Z (ip), vehicle: carboxymethylcellulose (CMC)
  T/C: 86 % of control
dose: 250.0 mg/kg/injection, schedule: Q01DX Z (ip), vehicle: carboxymethylcellulose (CMC)
  T/C: 91 % of control

## Cc1cc(OC(=O)Nc2ccc(Cl)cc2C(F)(F)F)c(C)cc1Cl
[4]
  T/C: 98 % of control
[6]
  T/C: 95 % of control
[7]
  T/C: 109 % of control

## Cn1c(=N)sc2ccc3ccccc3c21
dose: 12.5 mg/kg/injection, schedule: Q04DX003 (ip), vehicle: Klucel (hydroxypropylcellulose) (HPC)
  T/C: 90 % of control
[8]
  T/C: 91 % of control
[9]
  T/C: 98 % of control
[10]
  T/C: 86 % of control

## O=C(/C=C/c1ccncc1)Nc1ccccc1
dose: 25.0 mg/kg/injection, schedule: Q04DX002 (ip), vehicle: Klucel (hydroxypropylcellulose) (HPC)
  T/C: 117 % of control
[11]
  T/C: 98 % of control
[12]
  T/C: 98 % of control

## C(=N\N1CCN(/N=C/c2cccc(OCc3ccccc3)c2)CC1)/c1cccc(OCc2ccccc2)c1
[1]
  T/C: 96 % of control
[2]
  T/C: 87 % of control
[3]
  T/C: 90 % of control

## NC(CCC(=O)Nc1cccc2ccccc12)C(=O)O (stereo unspecified)
[13]
  T/C: 105 % of control
[14]
  T/C: 100 % of control
[15]
  T/C: 106 % of control

## C/C(N)=N\O
[16]
  T/C: 105 % of control
[17]
  T/C: 102 % of control
[18]
  T/C: 105 % of control

## O=C[CH2][Hg][Cl]
dose: 0.78 mg/kg/injection, schedule: Q01DX009 (ip), vehicle: saline with Tween-80
  T/C: 96 % of control
dose: 1.56 mg/kg/injection, schedule: Q01DX009 (ip), vehicle: saline with Tween-80
  T/C: 96 % of control
dose: 3.13 mg/kg/injection, schedule: Q01DX009 (ip), vehicle: saline with Tween-80
  T/C: 93 % of control

## O=[N+]([O-])c1ccc(N=Nc2c3ccccc3c(O)n2CO)c([N+](=O)[O-])c1
[1]
  T/C: 97 % of control
[2]
  T/C: 97 % of control
[3]
  T/C: 98 % of control

## COC1OC(CI)C(O)C(O)C1O (stereo unspecified)
[1]
  T/C: 109 % of control
[2]
  T/C: 109 % of control
[3]
  T/C: 120 % of control

## CSc1nc(=O)[nH]nc1SCc1ccccc1
dose: 22.0 mg/kg/injection, schedule: Q01DX015 (ip), vehicle: carboxymethylcellulose (CMC)
  T/C: 95 % of control
dose: 33.0 mg/kg/injection, schedule: Q01DX015 (ip), vehicle: carboxymethylcellulose (CMC)
  T/C: 95 % of control
dose: 44.0 mg/kg/injection, schedule: Q01DX001 (ip), vehicle: carboxymethylcellulose (CMC)
  T/C: 100 % of control and 103 % of control
dose: 50.0 mg/kg/injection, schedule: Q01DX015 (ip), vehicle: carboxymethylcellulose (CMC)
  T/C: 92 % of control
dose: 66.0 mg/kg/injection, schedule: Q01DX001 (ip), vehicle: carboxymethylcellulose (CMC)
  T/C: 98 % of control and 102 % of control
dose: 75.0 mg/kg/injection, schedule: Q01DX009 (ip), vehicle: saline
  T/C: 103 % of control
dose: 75.0 mg/kg/injection, schedule: Q01DX015 (ip), vehicle: carboxymethylcellulose (CMC)
  T/C: 87 % of control
dose: 100.0 mg/kg/injection, schedule: Q01DX001 (ip), vehicle: carboxymethylcellulose (CMC)
  T/C: 95 % of control and 97 % of control and 284 % of control
[1]
  T/C: 100 % of control
dose: 150.0 mg/kg/injection, schedule: Q01DX001 (ip), vehicle: carboxymethylcellulose (CMC)
  T/C: 96 % of control and 89 % of control
dose: 150.0 mg/kg/injection, schedule: Q01DX009 (ip), vehicle: saline
  T/C: 95 % of control
[2]
  T/C: 97 % of control
dose: 300.0 mg/kg/injection, schedule: Q01DX009 (ip), vehicle: saline
  T/C: 97 % of control
dose: 400.0 mg/kg/injection, schedule: Q01DX001 (ip), vehicle: carboxymethylcellulose (CMC)
  T/C: 160 % of control
[3]
  T/C: 95 % of control

## CCN(CC)CCN1C(=O)C(c2ccccc2)C2(CCN(C)CC2)C1=O (stereo unspecified)
[1]
  T/C: 101 % of control
[2]
  T/C: 105 % of control
[3]
  T/C: 97 % of control

## CCC1(C)NC(=O)NC1=O (stereo unspecified)
[5]
  T/C: 100 % of control
[1]
  T/C: 112 % of control
dose: 100.0 mg/kg/injection, schedule: Q01DX009 (ip), vehicle: saline
  T/C: 98 % of control
dose: 100.0 mg/kg/injection, schedule: Q04DX003 (ip), vehicle: saline
  T/C: 106 % of control
[2]
  T/C: 102 % of control
dose: 200.0 mg/kg/injection, schedule: Q01DX009 (ip), vehicle: saline
  T/C: 111 % of control
dose: 200.0 mg/kg/injection, schedule: Q04DX003 (ip), vehicle: saline
  T/C: 101 % of control
[3]
  T/C: 100 % of control
dose: 400.0 mg/kg/injection, schedule: Q01DX009 (ip), vehicle: saline
  T/C: 109 % of control
dose: 400.0 mg/kg/injection, schedule: Q04DX003 (ip), vehicle: saline
  T/C: 101 % of control

## COc1ccccc1C(=O)NS(=O)(=O)c1ccc(Cl)cc1
dose: 100.0 mg/kg/injection, schedule: Q04DX003 (ip), vehicle: acetone
  T/C: 113 % of control
dose: 200.0 mg/kg/injection, schedule: Q04DX003 (ip), vehicle: acetone
  T/C: 101 % of control
dose: 400.0 mg/kg/injection, schedule: Q04DX003 (ip), vehicle: acetone
  T/C: 96 % of control

## CNCCc1ccc(O)cc1
[1]
  T/C: 104 % of control
[2]
  T/C: 102 % of control
[3]
  T/C: 104 % of control

## CC(=O)ON1CCC=NC1
dose: 50.0 mg/kg/injection, schedule: Q04DX002 (ip), vehicle: saline
  T/C: 102 % of control
[16]
  T/C: 91 % of control
[17]
  T/C: 91 % of control
[18]
  T/C: 109 % of control

## Cc1cc(C)c(S(=O)(=O)c2c(C)cc(C)cc2C)c(C)c1
[8]
  T/C: 100 % of control
[9]
  T/C: 93 % of control
[10]
  T/C: 88 % of control

## NC(=O)Cn1cnc2cncnc21
[13]
  T/C: 103 % of control
[14]
  T/C: 111 % of control
[15]
  T/C: 99 % of control

## Cc1ccc(S(=O)(=O)NC(CSCc2ccccc2)C(=O)O)cc1 (stereo unspecified)
[6]
  T/C: 92 % of control
[7]
  T/C: 101 % of control

## COc1ccc(/C(C)=N\NC(N)=O)cc1
[11]
  T/C: 111 % of control
[12]
  T/C: 105 % of control
dose: 200.0 mg/kg/injection, schedule: Q04DX002 (ip), vehicle: Klucel (hydroxypropylcellulose) (HPC)
  T/C: 94 % of control
dose: 400.0 mg/kg/injection, schedule: Q04DX002 (ip), vehicle: Klucel (hydroxypropylcellulose) (HPC)
  T/C: 99 % of control

## O=c1c(C(Cl)Cl)nc2ccccc2n1O
dose: 100.0 mg/kg/injection, schedule: Q01DX001 (ip), vehicle: Klucel (hydroxypropylcellulose) (HPC)
  T/C: 95 % of control
dose: 200.0 mg/kg/injection, schedule: Q01DX001 (ip), vehicle: Klucel (hydroxypropylcellulose) (HPC)
  T/C: 98 % of control
dose: 400.0 mg/kg/injection, schedule: Q01DX001 (ip), vehicle: Klucel (hydroxypropylcellulose) (HPC)
  T/C: 101 % of control

## O=S(=O)(c1ccccc1)n1ccc2ccccc21
dose: 100.0 mg/kg/injection, schedule: Q04DX002 (ip), vehicle: saline with Tween-80
  T/C: 93 % of control
dose: 200.0 mg/kg/injection, schedule: Q04DX002 (ip), vehicle: saline with Tween-80
  T/C: 97 % of control
dose: 400.0 mg/kg/injection, schedule: Q04DX002 (ip), vehicle: saline with Tween-80
  T/C: 97 % of control
